Data as given in patent US9168259B2 (GRÜNENTHAL GMBH, priority 2010, dated 2015).
pEC50: −log10 of the molar value.

Molecular target: T1, KCNQ2/3 channels (Homo sapiens, UniProt O43525+O43526)
T1 construct: expressed in transfected cells
Experiment: Fluorescence assay using a voltage sensitive dye (fluorimetry)
Assay type: cell-based
Conditions: CHO-K1 cells expressing KCNQ2/3; for Emax: CHO-K1, plateau effect relative to saturated retigabine (50 μM) = 100%, negative values = antagonistic, read-out: Fluorimetry % efficacy (retigabine = 100%); for pEC50: IC50 where % efficacy is negative, read-out: Fluorimetry EC50/IC50
Description: Method I. Fluorescence Assay Using a Voltage Sensitive Dye (Fluorimetry)
These voltage-sensitive dyes are fluorescent dyes and, therefore, are forming the link between cell potential influenced by KCNQ modulation and fluorescence intensity. A KCNQ agonist leads to an opening of the channel, potassium and dye efflux, a following hyperpolarization and a reduction of the inner fluorescence intensity in a kinetic protocol. If applying an ion jump by KCl depolarization, KCNQ agonists increase the ΔF/F value. An antagonist performs vice versa, respectively.
Therefore, ‘fluorimetry EC50’ is a measure for the compound potency. The compound efficacy is mirrored by ‘fluorimetry % efficacy’ (‘% Efficacy’) and refers to the maximum response achievable by the test compound, i.e. the plateau effect. This drug's plateau effect is related to the plateau effect, which can be achieved by applying a saturated concentration of a reference compound, e.g. Retigabine (50 μM), in independent wells of the same experimental plate or series.
[…] CHO-K1 cells expressing KCNQ2/3 channels are cultivated adherently at 37° C., 5% CO2 and 95% humidity in cell culture bottles (e.g. 80 cm^2 TC flasks, Nunc) with DMEM-high glucose (Sigma Aldrich, D7777) including 10% FCS (PAN Biotech, e.g. 3302-P270521) or alternatively MEM Alpha Medium (1×, liquid, Invitrogen, #22571), 10% fetal calf serum (FCS) (Invitrogen, #10270-106, heat-inactivated) and the necessary selection antibiotics.
The cell number is determined using a CASY™ cell counter (TCC, Schärfe System). Depending on the optimal density for each individual cell line, 20,000-30,000 cells/well/100 μl are seeded onto 96-well Corning™ CellBIND™ assay plates (Flat Clear Bottom Black Polystyrene Microplates, #3340). Freshly seeded cells are then left to settle for one hour at room temperature, followed by incubation for 24 hours at 37° C., 5% CO2 and 95% humidity.
The voltage-sensitive fluorescent dye from the Membrane Potential Assay Kit (Red™ Bulk format part R8123 for FLIPR, MDS Analytical Technologies™) is prepared by dissolving the contents of one vessel Membrane Potential Assay Kit Red Component A in 200 ml of extracellular buffer (ES buffer, 120 mM NaCl, 1 mM KCl, 10 mM HEPES, 2 mM CaCl2, 2 mM MgCl2, 10 mM glucose; pH 7.4). After removal of the nutrient medium, the cells are washed once with 200 μl of ES buffer, then loaded for 45 min at room temperature in 100 μl of dye solution in the dark.
Fluorescence measurements are carried out in a BMG Labtech FLUOstar™, BMG Labtech NOVOstar™ or BMG Labtech POLARstar™ instrument (525 nm excitation, 560 nm emission, Bottom Read mode). After incubation with the dye, 50 μl of the test substances in the desired concentrations, or 50 μl of ES buffer for control purposes, are applied to the wells of the assay plate and incubated for 30 min at room temperature while being shielded from light. The fluorescence intensity of the dye is then measured for 5 min and the fluorescence value F1 of each well is thus determined at a given, constant time. 15 μl of a KCl solution are then added to each well (final concentration of potassium ions 92 mM). The change in fluorescence intensity is subsequently monitored until all the relevant values have been obtained (mainly 5-30 min). At a given time post KCl application, a fluorescence value F2 is determined, in this case at the time of the fluorescence peak.
For calculation, the fluorescence intensity F2 is corrected for the fluorescence intensity F1, and the activity (ΔF/F) of the target compound on the potassium channel is determined as follows:
In order to determine whether a substance has agonistic activity,
[formula] can be related to
[formula] of control wells.
[formula] is determined by adding to the well only the buffer solution instead of the test substance, determining the value F1K of the fluorescence intensity, adding the potassium ions as described above, and measuring a value F2K of the fluorescence intensity.

T1 sequence (O43526 whole entry): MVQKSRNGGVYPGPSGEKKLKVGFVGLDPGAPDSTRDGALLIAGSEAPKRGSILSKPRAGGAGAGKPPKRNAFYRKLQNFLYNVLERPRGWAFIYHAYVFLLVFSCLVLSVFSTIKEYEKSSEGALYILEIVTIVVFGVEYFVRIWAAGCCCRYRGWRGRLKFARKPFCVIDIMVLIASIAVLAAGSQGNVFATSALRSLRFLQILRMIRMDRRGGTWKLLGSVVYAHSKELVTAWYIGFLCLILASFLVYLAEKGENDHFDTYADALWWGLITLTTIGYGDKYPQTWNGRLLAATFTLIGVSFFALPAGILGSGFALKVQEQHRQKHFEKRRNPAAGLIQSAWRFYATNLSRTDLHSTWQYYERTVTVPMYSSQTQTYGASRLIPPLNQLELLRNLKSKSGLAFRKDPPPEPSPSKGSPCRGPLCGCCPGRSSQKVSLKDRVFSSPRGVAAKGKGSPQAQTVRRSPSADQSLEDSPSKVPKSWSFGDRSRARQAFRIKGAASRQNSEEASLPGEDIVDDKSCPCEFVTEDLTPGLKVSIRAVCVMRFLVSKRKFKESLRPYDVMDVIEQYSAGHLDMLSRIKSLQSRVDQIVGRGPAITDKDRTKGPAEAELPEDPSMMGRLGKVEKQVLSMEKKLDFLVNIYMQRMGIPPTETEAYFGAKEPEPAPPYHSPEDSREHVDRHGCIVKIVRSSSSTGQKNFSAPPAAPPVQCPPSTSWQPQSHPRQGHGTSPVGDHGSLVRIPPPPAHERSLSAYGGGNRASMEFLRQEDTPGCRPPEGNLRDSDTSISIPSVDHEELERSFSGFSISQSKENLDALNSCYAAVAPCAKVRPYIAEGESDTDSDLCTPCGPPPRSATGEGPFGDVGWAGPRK
T1 sequence (O43525 whole entry): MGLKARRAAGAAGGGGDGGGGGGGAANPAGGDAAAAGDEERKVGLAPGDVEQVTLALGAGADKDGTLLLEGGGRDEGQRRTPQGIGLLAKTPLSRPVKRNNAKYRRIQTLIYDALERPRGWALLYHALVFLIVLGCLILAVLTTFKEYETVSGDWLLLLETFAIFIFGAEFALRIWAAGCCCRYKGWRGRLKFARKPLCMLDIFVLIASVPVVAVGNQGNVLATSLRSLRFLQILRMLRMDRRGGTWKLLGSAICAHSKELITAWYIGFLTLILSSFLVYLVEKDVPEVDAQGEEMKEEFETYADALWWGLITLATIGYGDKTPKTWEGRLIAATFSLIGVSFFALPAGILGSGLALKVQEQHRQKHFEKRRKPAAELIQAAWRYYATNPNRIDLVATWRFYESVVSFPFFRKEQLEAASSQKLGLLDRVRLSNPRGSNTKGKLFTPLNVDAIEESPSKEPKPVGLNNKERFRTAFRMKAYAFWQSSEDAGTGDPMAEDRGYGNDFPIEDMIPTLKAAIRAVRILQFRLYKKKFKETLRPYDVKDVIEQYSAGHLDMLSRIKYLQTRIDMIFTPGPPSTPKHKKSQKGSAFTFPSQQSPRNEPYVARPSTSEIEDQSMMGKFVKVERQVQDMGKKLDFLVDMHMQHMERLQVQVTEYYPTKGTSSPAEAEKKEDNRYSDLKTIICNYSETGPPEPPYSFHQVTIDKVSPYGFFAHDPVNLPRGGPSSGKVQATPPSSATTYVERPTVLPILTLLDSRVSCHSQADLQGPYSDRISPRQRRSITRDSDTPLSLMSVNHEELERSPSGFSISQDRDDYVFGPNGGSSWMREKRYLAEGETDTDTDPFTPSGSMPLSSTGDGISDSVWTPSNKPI

Emax | pEC50 | SMILES
185% | 6.63 | CCCc1nc(N2CCOCC2)cc(C)c1C(=O)NCc1ccc(F)cc1 [Example 29, N-[(4-Fluorophenyl)-methyl]-4-methyl-6-morpholin-4-yl-2-propyl-pyridine-3-carboxylic acid amide]
144% | 5.88 | CCSc1nc(N2CCC(OC)C2)cc(C)c1C(=O)NCc1cccc(F)c1 (stereo not shown) [Example 30, 2-Ethylsulfanyl-N-[(3-fluorophenyl)-methyl]-6-(3-methoxy-pyrrolidin-1-yl)-4-methyl-pyridine-3-carboxylic acid amide]
23% |  | CCSc1nc(N2CCN(C)CC2)cc(C)c1C(=O)NCc1cccc(F)c1 [Example 31, 2-Ethylsulfanyl-N-[(3-fluorophenyl)-methyl]-4-methyl-6-(4-methyl-piperazin-1-yl)-pyridine-3-carboxylic acid amide]
166% | 6.88 | CCSc1nc(N2CCCCC2)cc(C)c1C(=O)NCc1cccc(F)c1 [Example 32, 2-Ethylsulfanyl-N-[(3-fluorophenyl)-methyl]-4-methyl-6-piperidin-1-yl-pyridine-3-carboxylic acid amide]
110% | 6.19 | CCSc1nc(N(C)C)cc(C)c1C(=O)NCc1cccc(F)c1 [Example 33, 6-Dimethylamino-2-ethylsulfanyl-N-[(3-fluorophenyl)-methyl]-4-methyl-pyridine-3-carboxylic acid amide]
37% | 5.74 | CCSc1nc(NC)cc(C)c1C(=O)NCc1cccc(F)c1 [Example 34, 2-Ethylsulfanyl-N-[(3-fluorophenyl)-methyl]-4-methyl-6-methylamino-pyridine-3-carboxylic acid amide]
153% | 6.20 | CCSc1nc(N(C)CCOC)cc(C)c1C(=O)NCc1cccc(F)c1 [Example 35, 2-Ethylsulfanyl-N-[(3-fluorophenyl)-methyl]-6-(2-methoxy-ethyl-methyl-amino)-4-methyl-pyridine-3-carboxylic acid amide]
125% | 5.22 | CCSc1nc(NCCOC)cc(C)c1C(=O)NCc1cccc(F)c1 [Example 36, 2-Ethylsulfanyl-N-[(3-fluorophenyl)-methyl]-6-(2-methoxy-ethylamino)-4-methyl-pyridine-3-carboxylic acid amide]
148% | 7.00 | Cc1cc(N2CCOCC2)nc(SC(C)C)c1C(=O)NCc1cccc(F)c1 [Example 37, N-[(3-Fluorophenyl)-methyl]-2-(isopropylsulfanyl)-4-methyl-6-morpholin-4-yl-pyridine-3-carboxylic acid amide]
143% | 6.19 | COc1nc(N2CCOCC2)cc(C)c1C(=O)NCc1ccc(F)cc1 [Example 39, N-[(4-Fluorophenyl)-methyl]-2-methoxy-4-methyl-6-morpholin-4-yl-pyridine-3-carboxylic acid amide]
169% | 6.24 | CCSc1nc(N2CCOCC2)cc(C)c1C(=O)NCCC(C)C [Example 42, 2-Ethylsulfanyl-4-methyl-N-(3-methyl-butyl)-6-morpholin-4-yl-pyridine-3-carboxylic acid amide]
189% | 6.17 | CCSc1nc(N2CCOCC2)cc(C)c1C(=O)NCC1CCCC1 [Example 43, N-(Cyclopentyl-methyl)-2-ethylsulfanyl-4-methyl-6-morpholin-4-yl-pyridine-3-carboxylic acid amide]
116% | 7.06 | CCSc1nc(N2CCOCC2)cc(C)c1C(=O)NCCC1CCCC1 [Example 44, N-(2-Cyclopentyl-ethyl)-2-ethylsulfanyl-4-methyl-6-morpholin-4-yl-pyridine-3-carboxylic acid amide]
151% | 5.50 | CCSc1nc(N2CCOCC2)cc(C)c1C(=O)NCc1cccc(F)n1 [Example 45, 2-Ethylsulfanyl-N-[(6-fluoro-pyridin-2-yl)-methyl]-4-methyl-6-morpholin-4-yl-pyridine-3-carboxylic acid amide]
143% | 5.32 | CCSc1nc(N2CCOCC2)cc(C)c1C(=O)NCc1ccc(F)cn1 [Example 46, 2-Ethylsulfanyl-N-[(5-fluoro-pyridin-2-yl)-methyl]-4-methyl-6-morpholin-4-yl-pyridine-3-carboxylic acid amide]
119% | 5.58 | CCSc1nc(N2CCOCC2)cc(C)c1C(=O)NCC(C)(C)C [Example 47, N-(2,2-Dimethyl-propyl)-2-ethylsulfanyl-4-methyl-6-morpholin-4-yl-pyridine-3-carboxylic acid amide]
143% | 5.83 | CCSc1nc(N2CCC(OC)CC2)cc(C)c1C(=O)NCc1cccc(F)c1 [Example 49, 2-Ethylsulfanyl-N-[(3-fluorophenyl)-methyl]-6-(4-methoxy-piperidin-1-yl)-4-methyl-pyridine-3-carboxylic acid amide]
-97% | 7.20 | CCSc1nc(N2CCOCC2)cc(C)c1C(=O)NCc1ccccc1-c1ccccc1 [Example 50, 2-Ethylsulfanyl-4-methyl-6-morpholin-4-yl-N-[(2-phenyl-phenyl)-methyl]-pyridine-3-carboxylic acid amide]
-84% | 6.27 | CCSc1nc(N2CCOCC2)cc(C)c1C(=O)NCc1ccccc1C(F)(F)F [Example 51, 2-Ethylsulfanyl-4-methyl-6-morpholin-4-yl-N-[[2-(trifluoromethyl)-phenyl]methyl]-pyridine-3-carboxylic acid amide]
122% | 6.63 | CCSc1nc(N(C)Cc2ccc(F)cc2)cc(C)c1C(=O)NCc1cccc(F)c1 [Example 52, 2-Ethylsulfanyl-N-[(3-fluorophenyl)-methyl]-6-[(4-fluorophenyl)-methyl-methyl-amino]-4-methyl-pyridine-3-carboxylic acid amide]
191% | 6.61 | CCSc1nc(N2CCOCC2)cc(C)c1C(=O)NCCCc1ccccc1 [Example 53, 2-Ethylsulfanyl-4-methyl-6-morpholin-4-yl-N-(3-phenyl-propyl)-pyridine-3-carboxylic acid amide]
103% | 5.67 | CCSc1nc(N2CCOCC2)cc(C)c1C(=O)NCCc1ccccc1 [Example 54, 2-Ethylsulfanyl-4-methyl-6-morpholin-4-yl-N-phenethyl-pyridine-3-carboxylic acid amide]
162% | 6.59 | CCSc1nc(N2CCOCC2)cc(C)c1C(=O)NCc1ccccc1 [Example 55, N-Benzyl-2-ethylsulfanyl-4-methyl-6-morpholin-4-yl-pyridine-3-carboxylic acid amide]
167% | 7.11 | CCCSc1nc(N2CCOCC2)cc(C)c1C(=O)NCc1cccc(F)c1 [Example 56, N-[(3-Fluorophenyl)-methyl]-4-methyl-6-morpholin-4-yl-2-(propylsulfanyl)-pyridine-3-carboxylic acid amide]
169% | 7.33 | CCCCSc1nc(N2CCOCC2)cc(C)c1C(=O)NCc1cccc(F)c1 [Example 57, 2-(Butylsulfanyl)-N-[(3-fluorophenyl)-methyl]-4-methyl-6-morpholin-4-yl-pyridine-3-carboxylic acid amide]
